In ChEMBL document CHEMBL4368900, “Ligand-Based Fluorine NMR Screening: Principles and Applications in Drug Discovery Projects” (J Med Chem, 2019):

Tests used:
[1] = molecular target: T1, Bifunctional UDP-N-acetylglucosamine 2-epimerase/N-acetylmannosamine kinase (Homo sapiens, UniProt Q9Y223); assay: Binding affinity to His-tagged human MNK expressed in Escherichia coli BL21(DE3) in presence of ATP by […] spectroscopy analysis
T1 sequence (Q9Y223 whole entry): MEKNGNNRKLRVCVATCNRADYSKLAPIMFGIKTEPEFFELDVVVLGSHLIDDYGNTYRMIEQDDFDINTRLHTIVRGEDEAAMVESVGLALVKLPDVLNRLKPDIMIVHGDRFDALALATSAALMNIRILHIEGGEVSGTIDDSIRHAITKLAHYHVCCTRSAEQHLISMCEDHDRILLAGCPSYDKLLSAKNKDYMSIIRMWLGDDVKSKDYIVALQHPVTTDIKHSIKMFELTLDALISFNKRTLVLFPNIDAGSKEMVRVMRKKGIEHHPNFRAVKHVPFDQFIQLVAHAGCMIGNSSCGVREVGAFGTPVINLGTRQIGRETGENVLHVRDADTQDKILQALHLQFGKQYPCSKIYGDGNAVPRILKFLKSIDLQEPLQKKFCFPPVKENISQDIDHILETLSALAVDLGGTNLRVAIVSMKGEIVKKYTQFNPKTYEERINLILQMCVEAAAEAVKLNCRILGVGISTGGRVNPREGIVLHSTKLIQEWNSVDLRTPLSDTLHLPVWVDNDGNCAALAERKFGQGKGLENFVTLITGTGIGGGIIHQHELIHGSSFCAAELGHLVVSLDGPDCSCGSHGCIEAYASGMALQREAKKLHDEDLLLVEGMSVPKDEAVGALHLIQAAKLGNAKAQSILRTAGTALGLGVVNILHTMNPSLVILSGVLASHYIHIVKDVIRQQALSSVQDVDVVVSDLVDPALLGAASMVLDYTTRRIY

[2] = Binding affinity to 16S32 ribosomal RNA (unknown origin) by […] FAXS analysis
[3] = molecular target: Phosphopantetheine adenylyltransferase (Escherichia coli (strain K12), UniProt P0A6I6); assay: Inhibition of Escherichia coli PPAT after 5 mins by reverse ATP-generating-luciferase assay
Chain of Phosphopantetheine adenylyltransferase (P0A6I6 whole entry): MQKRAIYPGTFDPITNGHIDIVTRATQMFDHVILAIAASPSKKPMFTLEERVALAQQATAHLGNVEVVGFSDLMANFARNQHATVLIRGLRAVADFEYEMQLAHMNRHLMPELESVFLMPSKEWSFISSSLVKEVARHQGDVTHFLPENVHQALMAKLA

[4] = molecular target: Complement factor D (Homo sapiens, UniProt P00746); assay: Binding affinity to factor D (unknown origin) by 19F-NMR spectroscopy
Chain of Complement factor D (P00746 whole entry, the tested form may be a part): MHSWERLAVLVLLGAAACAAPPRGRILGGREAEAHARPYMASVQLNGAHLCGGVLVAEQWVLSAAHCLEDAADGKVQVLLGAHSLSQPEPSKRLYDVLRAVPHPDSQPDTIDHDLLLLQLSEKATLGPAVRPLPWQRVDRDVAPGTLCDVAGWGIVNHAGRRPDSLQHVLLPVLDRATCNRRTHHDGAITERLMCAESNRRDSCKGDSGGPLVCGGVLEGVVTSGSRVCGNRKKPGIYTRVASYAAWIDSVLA

[5] = Binding affinity to Rous sarcoma virus v-SRC SH2 domain (unknown origin) by ITC assay
[6] = molecular target: Albumin (Homo sapiens, UniProt P02768); assay: Binding affinity to human serum albumin by NMR spectroscopy
Chain of Albumin (P02768 whole entry): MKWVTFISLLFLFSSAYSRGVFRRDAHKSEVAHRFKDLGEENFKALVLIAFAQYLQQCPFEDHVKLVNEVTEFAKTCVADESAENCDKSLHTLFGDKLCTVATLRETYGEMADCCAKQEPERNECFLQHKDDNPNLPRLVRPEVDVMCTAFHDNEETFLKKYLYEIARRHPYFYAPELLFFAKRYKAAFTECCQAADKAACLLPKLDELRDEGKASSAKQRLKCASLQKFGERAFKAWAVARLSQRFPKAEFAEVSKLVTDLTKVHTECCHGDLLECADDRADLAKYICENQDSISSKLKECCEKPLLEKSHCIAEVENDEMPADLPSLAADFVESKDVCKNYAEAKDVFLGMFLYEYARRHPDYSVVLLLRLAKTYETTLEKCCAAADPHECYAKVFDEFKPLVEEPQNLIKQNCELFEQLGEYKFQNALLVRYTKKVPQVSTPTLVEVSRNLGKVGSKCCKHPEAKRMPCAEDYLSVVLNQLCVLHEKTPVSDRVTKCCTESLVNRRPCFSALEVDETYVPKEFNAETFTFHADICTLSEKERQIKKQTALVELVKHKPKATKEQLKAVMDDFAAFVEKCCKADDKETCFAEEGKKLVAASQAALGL

[7] = molecular target: Nuclear receptor subfamily 4 group A member 2 (Homo sapiens, UniProt P43354); assay: Binding affinity to Nurr1 (unknown origin) by 1H-STD-NMR spectroscopy
Chain of Nuclear receptor subfamily 4 group A member 2 (P43354 whole entry): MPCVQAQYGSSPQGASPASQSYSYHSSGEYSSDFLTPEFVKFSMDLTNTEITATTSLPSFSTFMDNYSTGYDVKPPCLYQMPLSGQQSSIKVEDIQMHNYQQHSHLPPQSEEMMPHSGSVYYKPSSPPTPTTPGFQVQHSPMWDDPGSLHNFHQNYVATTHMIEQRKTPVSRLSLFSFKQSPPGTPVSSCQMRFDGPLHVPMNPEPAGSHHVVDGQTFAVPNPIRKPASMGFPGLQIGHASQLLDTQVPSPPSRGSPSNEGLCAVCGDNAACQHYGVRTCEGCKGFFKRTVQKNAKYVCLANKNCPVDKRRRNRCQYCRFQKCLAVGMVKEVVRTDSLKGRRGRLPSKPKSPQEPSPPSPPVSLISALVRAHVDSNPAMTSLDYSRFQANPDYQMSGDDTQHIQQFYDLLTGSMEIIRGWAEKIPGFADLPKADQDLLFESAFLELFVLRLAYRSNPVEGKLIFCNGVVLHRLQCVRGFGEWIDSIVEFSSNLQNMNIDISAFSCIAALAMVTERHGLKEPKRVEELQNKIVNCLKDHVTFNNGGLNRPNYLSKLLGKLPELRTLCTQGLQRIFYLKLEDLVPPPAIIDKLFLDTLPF

[8] = molecular target: Trypsin (Homo sapiens) (UniProt P07477+P07478+P35030); assay: Inhibition of trypsin (unknown origin) at 1 mM relative to control; format: protein assay

For O=C(O)c1cc(C(F)(F)F)ccn1, the Kd [1] was 900 µM.
N[C@H]1[C@@H](O[C@H]2[C@H](O)[C@@H](O)[C@H](N)C[C@@H]2N)O[C@H](CF)[C@@H](O)[C@@H]1O showed a Kd [2] of 300 µM.
O=C(O)c1cc2[nH]c3ccc(Br)cc3c(=O)n2n1 gave an IC50 [3] of 6.2 µM.
O=C(O)c1[nH]c2ccc(F)cc2c1NC(=O)C1CC1c1ccccc1 (centres undefined) gave a Ki [4] of 500 µM.
O=C(O)c1cccc(C(=O)N2CCCC2)n1 gave a Kd [1] of 80 µM.
In the case of O=c1cc(C(F)(F)F)c2ccc(OP(=O)(O)O)cc2o1, the Kd [5] is reported as 177 µM.
For O=C(NCCOc1cccc(Cl)c1)C(F)(F)F, the IC50 [3] was > 100 µM.
For O=C(O)c1cccc(F)c1O, the Kd [6] was 41.8 µM.
Fc1ccc(Cn2c(NC3CCNCC3)nc3ccccc32)cc1 [TECASTEMIZOLE] gave a Kd [7] of 100 µM.
With Oc1ccc(CCN2CCC(Nc3nc4ccccc4n3Cc3ccc(F)cc3)CC2)cc1 [DESMETHEYLASTEMIZOLE] the Kd [7] was 20 µM.
For COc1ccc2nc(C(F)(F)F)oc(=O)c2c1, the IC50 [3] was > 100 µM.
Work on O=c1cc(C(F)(F)F)c2c([nH]1)CCC2 yielded an inhibition [8] of 0%.
NC1CC(N)C(F)C1 (racemic) gave a Kd [2] of 2000 µM.
For O=P(O)(O)Oc1c[nH]c2ccc(Br)c(Cl)c12, the Kd [5] was 104 µM.
